Measured values: article PMC11927696, “Synthetic mycolates derivatives to decipher protein mycoloylation, a unique post-translational modification in bacteria” (The Journal of Biological Chemistry, 2025)

How the values were obtained:
MytA (MytAhis) [1] = target: T1, MytA (MytAhis) (Corynebacterium glutamicum, UniProt P0C1D6); assay: trehalose acylation (trehalose dipalmitate formation), MALDI-TOF MS; format: biochemical; conditions: 1 mM, acts as donor and acceptor, 5 μM MytA, pH 8.0, 37 °C, 3 h
T1 construct: gene csp1
T1 sequence (P0C1D6 44-657): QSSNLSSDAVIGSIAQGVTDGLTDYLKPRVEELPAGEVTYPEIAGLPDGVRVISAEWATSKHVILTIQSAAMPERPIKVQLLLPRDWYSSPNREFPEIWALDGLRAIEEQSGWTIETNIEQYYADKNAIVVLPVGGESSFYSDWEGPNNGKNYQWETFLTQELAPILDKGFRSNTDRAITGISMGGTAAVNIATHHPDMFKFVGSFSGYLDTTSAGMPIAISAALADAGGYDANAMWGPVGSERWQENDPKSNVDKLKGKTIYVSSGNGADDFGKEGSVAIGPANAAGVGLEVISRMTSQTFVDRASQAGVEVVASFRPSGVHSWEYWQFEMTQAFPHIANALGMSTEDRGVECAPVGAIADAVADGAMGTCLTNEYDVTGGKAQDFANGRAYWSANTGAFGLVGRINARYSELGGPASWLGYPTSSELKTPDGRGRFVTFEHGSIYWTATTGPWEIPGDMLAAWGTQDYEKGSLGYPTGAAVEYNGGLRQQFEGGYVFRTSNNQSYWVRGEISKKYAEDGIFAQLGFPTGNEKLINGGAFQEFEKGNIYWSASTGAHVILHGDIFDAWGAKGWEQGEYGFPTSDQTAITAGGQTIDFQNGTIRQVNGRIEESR

MytC (MytChis) [2] = target: T2, MytC (MytChis) (Corynebacterium glutamicum, UniProt Q8NTG4); assay: PorA mycoloylation, MALDI-TOF MS; format: biochemical; conditions: PorA acceptor; in combination with TDM/TMM mix, pH 8.0, 37 °C, 3 h
T2 construct: gene Cgl0343; residues 30-363 seen in crystal
T2 sequence (Q8NTG4 entry or part of it): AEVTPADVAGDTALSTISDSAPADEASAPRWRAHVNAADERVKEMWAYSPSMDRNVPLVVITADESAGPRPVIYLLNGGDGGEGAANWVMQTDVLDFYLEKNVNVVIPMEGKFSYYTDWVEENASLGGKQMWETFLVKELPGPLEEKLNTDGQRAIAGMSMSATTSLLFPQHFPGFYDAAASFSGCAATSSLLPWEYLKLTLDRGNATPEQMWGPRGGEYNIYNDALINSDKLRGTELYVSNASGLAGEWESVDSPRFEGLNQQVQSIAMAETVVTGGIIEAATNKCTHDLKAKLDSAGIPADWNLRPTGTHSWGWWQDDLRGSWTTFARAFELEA

MytA (MytAhis) [3] = target: T1, MytA (MytAhis); assay: trehalose mycoloylation (TDM formation), TLC and MALDI-TOF MS; format: biochemical; conditions: 1 mM, acts as donor and acceptor, 5 μM MytA, pH 8.0, 37 °C, 3 h
MytC (MytChis) [4] = target: T2, MytC (MytChis); assay: X-ray crystallography, […] Å; format: binding

## CCCCCCCCCCCCCCCC(=O)OC[C@H]1O[C@H](O[C@H]2O[C@H](CO)[C@@H](O)[C@H](O)[C@H]2O)[C@H](O)[C@@H](O)[C@@H]1O [compound 6, TMP]
MytA (MytAhis) [1]
  trehalose acylation (trehalose dipalmitate formation), MALDI-TOF MS: both compounds are efficient substrates of MytA

## CCCCCCCCCCCCCCC[C@@H](O)CC(=O)OC[C@H]1O[C@H](O[C@H]2O[C@H](CO)[C@@H](O)[C@H](O)[C@H]2O)[C@H](O)[C@@H](O)[C@@H]1O [compound 4, analog 4]
MytC (MytChis) [2]
  PorA mycoloylation, MALDI-TOF MS: is perfectly used as a substrate to acylate PorA

## CCCCCCCCCCCCCCC[C@@H](O)[C@@H](CCCCCCCCCCCCCC)C(=O)OC[C@H]1O[C@H](O[C@H]2O[C@H](CO)[C@@H](O)[C@H](O)[C@H]2O)[C@H](O)[C@@H](O)[C@@H]1O [synthetic TMM-C32:0]
MytA (MytAhis) [3]
  trehalose mycoloylation (TDM formation), TLC and MALDI-TOF MS: a small amount of TDM is detected on TLC

## OC[C@H]1O[C@H](O[C@H]2O[C@H](CO)[C@@H](O)[C@H](O)[C@H]2O)[C@H](O)[C@@H](O)[C@@H]1O [trehalose]
MytC (MytChis) [4]; second site, protein surface near active site groove, contacts E225 and D232 of helix α8, crystal with TMM-C13:0
  X-ray crystallography, 2.69 Å: A trehalose moiety was identified on the surface of MytC

## CCCCC[C@@H](O)[C@@H](CCCCC)C(=O)OC[C@H]1O[C@H](O[C@H]2O[C@H](CO)[C@@H](O)[C@H](O)[C@H]2O)[C@H](O)[C@@H](O)[C@@H]1O [compound 2, TMM-C13:0]
MytC (MytChis) [4]; covalent, mycoloyl ester on catalytic S189, co-crystallised, pH 7.1
  X-ray crystallography, 2.69 Å: S189 Oγ atom forms an ester bond with the carbonyl of the analog
